Legend:
Assay in all cases: fitness (endpoint OD595 vs no drug) (fraction); higher = more growth
[1] = test system: S. aureus Newman
Procedure, shortened: (§1)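 With the first reading as background, OD595 was measured every 30 min for 14 h in 384-well plates kept at 37 °C and inoculated at OD595 0.01. TSB, LB Lennox or CY was the medium. Fitness is the optical density at the transition into stationary phase divided by the robust mean of no-drug control wells, with a cap of 1.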

[2] = test system: S. aureus DSM 20231
Procedure, shortened: as §1

[3] = test system: S. pneumoniae D39V
Procedure, shortened: as §1

[4] = test system: B. subtilis 168
Procedure, shortened: as §1
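Also: OD595 on entry to stationary phase over no-drug wells; at most 1.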

CC1(C)S[C@@H]2[C@H](NC(=O)[C@H](N)c3ccc(O)cc3)C(=O)N2[C@H]1C(=O)O [Amoxicillin] + CC1(C)S[C@@H]2[C@H](NC(=O)Cc3ccccc3)C(=O)N2[C@H]1C(=O)O [Penicillin G]
fitness, [1]
Conditions	first compound 0.0625 µg/mL	first compound 0.125 µg/mL	first compound 0.25 µg/mL
partner 0.0195 µg/mL	0.845	0.855	–
partner 0.039 µg/mL	0.878	0.833	0.797
partner 0.078 µg/mL	0.796	0.801	0.807

CC1(C)S[C@@H]2[C@H](NC(=O)[C@H](N)c3ccc(O)cc3)C(=O)N2[C@H]1C(=O)O [Amoxicillin] + CC(=O)Oc1ccccc1C(=O)O [Acetylsalicylic acid]
fitness
Conditions	first compound 0.0008 µg/mL	first compound 0.0015 µg/mL	first compound 0.003 µg/mL	first compound 0.0625 µg/mL	first compound 0.125 µg/mL	first compound 0.25 µg/mL	first compound 0.5 µg/mL
[2], partner 250 µg/mL	–	–	–	0.511	0.448	0.0498	0.0014
[2], partner 500 µg/mL	–	–	–	0.449	0.395	0.05	0.0115
[2], partner 1000 µg/mL	–	–	–	0.144	0.284	0.0643	0.0095
[3], partner 250 µg/mL	0.958	0.975	0.919	–	–	–	–
[3], partner 500 µg/mL	0.939	0.923	0.905	–	–	–	–
[3], partner 1000 µg/mL	0.774	0.896	0.865	–	–	–	–

[3], first compound 0.006 µg/mL, one replicate
Conditions	fitness
partner 250 µg/mL	0.465
partner 500 µg/mL	0.507
partner 1000 µg/mL	0.483

CC1(C)S[C@@H]2[C@H](NC(=O)[C@H](N)c3ccc(O)cc3)C(=O)N2[C@H]1C(=O)O [Amoxicillin] + N[C@@H]1CONC1=O [Cycloserine D]
fitness
Conditions	first compound 0.0625 µg/mL	first compound 0.125 µg/mL	first compound 0.25 µg/mL	first compound 0.5 µg/mL
[1], partner 0.375 µg/mL	0.889	0.875	0.811	–
[1], partner 0.75 µg/mL	0.879	0.91	0.821	–
[1], partner 1.5 µg/mL	0.861	0.851	0.8	–
[2], partner 0.375 µg/mL	0.579	0.382	0.0345	0.0039
[2], partner 0.75 µg/mL	0.562	0.368	0.0204	0.0079
[2], partner 1.5 µg/mL	0.554	–	0.0264	0.0072

CO/N=C(\C(=O)N[C@@H]1C(=O)N2C(C(=O)[O-])=C(C[N+]3(C)CCCC3)CS[C@H]12)c1csc(N)n1 [Cefepime] + CC1(C)S[C@@H]2[C@H](NC(=O)Cc3ccccc3)C(=O)N2[C@H]1C(=O)O [Penicillin G]
fitness, [1]
Conditions	first compound 0.125 µg/mL	first compound 0.25 µg/mL	first compound 0.5 µg/mL
partner 0.0195 µg/mL	0.868	0.801	0.712
partner 0.039 µg/mL	0.895	0.811	0.695
partner 0.078 µg/mL	0.871	0.773	0.704

CCCCCCCCCC(=O)N[C@@H](Cc1c[nH]c2ccccc12)C(=O)N[C@H](CC(N)=O)C(=O)N[C@@H](CC(=O)O)C(=O)N[C@@H]1C(=O)NCC(=O)N[C@@H](CCCN)C(=O)N[C@@H](CC(=O)O)C(=O)N[C@H](C)C(=O)N[C@@H](CC(=O)O)C(=O)NCC(=O)N[C@H](CO)C(=O)N[C@@H]([C@H](C)CC(=O)O)C(=O)N[C@@H](CC(=O)c2ccccc2N)C(=O)O[C@@H]1C [Daptomycin] + N[C@@H]1CONC1=O [Cycloserine D]
fitness
Conditions	first compound 0.125 µg/mL	first compound 0.25 µg/mL	first compound 0.5 µg/mL	first compound 1 µg/mL	first compound 2 µg/mL
[1], partner 0.375 µg/mL	0.979	0.983	0.983	–	–
[1], partner 0.75 µg/mL	0.996	0.999	≥ 1	–	–
[1], partner 1.5 µg/mL	≥ 1	≥ 1	0.993	–	–
[2], partner 0.375 µg/mL	–	–	0.964	≥ 1	≥ 1
[2], partner 0.75 µg/mL	–	–	0.996	0.983	0.978
[2], partner 1.5 µg/mL	–	–	≥ 1	≥ 1	≥ 1
[4], partner 0.125 µg/mL	0.962	0.978	0.945	–	–
[4], partner 0.25 µg/mL	0.903	0.923	0.886	–	–
[4], partner 0.5 µg/mL	0.921	0.989	0.874	–	–

[4], first compound 1 µg/mL, one replicate
Conditions	fitness
partner 0.125 µg/mL	0.784
partner 0.25 µg/mL	0.758
partner 0.5 µg/mL	0.737

CN(C)C(=O)C(CCN1CCC(O)(c2ccc(Cl)cc2)CC1)(c1ccccc1)c1ccccc1 [Loperamide] + CO[C@@]12[C@H](COC(N)=O)C3=C(C(=O)C(C)=C(N)C3=O)N1C[C@@H]1N[C@@H]12 [Mitomycin C]
[3]
Conditions	fitness
first compound 17.14 µg/mL, partner 0.002 µg/mL	0.871
first compound 17.14 µg/mL, partner 0.004 µg/mL	0.796
first compound 17.14 µg/mL, partner 0.008 µg/mL	0.662
first compound 20 µg/mL, partner 0.001075 µg/mL	≥ 1
first compound 20 µg/mL, partner 0.00215 µg/mL	≥ 1
first compound 20 µg/mL, partner 0.0043 µg/mL	0.926
first compound 34.28 µg/mL, partner 0.002 µg/mL	0.843
first compound 34.28 µg/mL, partner 0.004 µg/mL	0.8
first compound 34.28 µg/mL, partner 0.008 µg/mL	0.616
first compound 40 µg/mL, partner 0.001075 µg/mL	≥ 1
first compound 40 µg/mL, partner 0.00215 µg/mL	≥ 1
first compound 40 µg/mL, partner 0.0043 µg/mL	0.953
first compound 80 µg/mL, partner 0.001075 µg/mL	0.804
first compound 80 µg/mL, partner 0.00215 µg/mL	0.801

[3], first compound 68.57 µg/mL, one replicate
Conditions	fitness
partner 0.002 µg/mL	0.814
partner 0.004 µg/mL	0.712
partner 0.008 µg/mL	0.672
